Values of other authors, collected in patent US9151747B1, “Sucralose antibody and immunoassay” (Mercyhurst University, priority 2013, dated 2015).

Legend:
[1] = background statement
[2] = background statement; remark: listed apart in the source

breakdown by the human body [1]: minimal breakdown
SMILES: OC[C@H]1O[C@H](O[C@]2(CCl)O[C@H](CCl)[C@@H](O)[C@@H]2O)[C@H](O)[C@@H](O)[C@H]1Cl [Sucralose, sucralose]
sweetness relative to table sugar [2]: 600 times
